From US20210204580A1, “ORGANIC COMPOUNDS” (Givaudan SA, priority 2018, published 2021)

Assays:
[1] = Potato protein solution taste description; conditions: 3 wt % potato protein solution + 14 ppt ethyl cyclohexanoate; Sample A without it: earthy, musty, fishy, bitter
Procedure: An aqueous potato protein solution comprising 3 weight % potato protein (Solanic™ 200 by Avebe) was prepared (Sample A).

[2] = off-note masking in consumables containing non-animal derived protein (general statements)

## CCOC(=O)C1CCCCC1 [ethyl cyclohexanoate]
[1]
  taste description: earthy, potato-like, but no fishy, bitter taste attributes have been noticed
[2]; higher concentrations, 50 ppt or more
  effect on off-note attributes: provides a significant effect on several off-note attributes, but in addition confers some fruity notes
[2]; up to 20 ppt (e.g. 0.5 ppt to about 15 ppt) added to a consumable comprising about 3 wt % non-animal derived protein
  off-note masking result: good results
[2]; use around its odor detection threshold, about 0.5 ppt (ng/L) to about 20 ppt (ng/L)
  masking of off-notes: provides the masking of certain off-notes
